Data reported in ChEMBL document CHEMBL5120848, “Tapping into the antitubercular potential of 2,5-dimethylpyrroles: A structure-activity relationship interrogation” (Eur J Med Chem, 2022).
≈ marks a conversion by molar mass, not a printed value. Calls of active or inactive are those of the source. No cut-off for these calls is given here.

Columns and labels:
[1] = tested on: Mycobacterium tuberculosis; assay: Anti-tubercular activity against Mycobacterium tuberculosis H37Rv assessed as inhibition of mycobacterial growth incubated for 7 days by resazurin-dye based analysis; assay type: functional; details: 168 h, time 7 day
[2] = Cytotoxicity against mouse J774.A1 cells assessed as reduction in cell viability incubated for 24 hrs by resazurin-dye based analysis; assay type: toxicity
[3] = Cytotoxicity against human MRC5 cells assessed as reduction in cell viability incubated for 24 hrs by resazurin-dye based analysis; assay type: toxicity
[4] = Selectivity index, ratio of IC50 for cytotoxicity against mouse J774.A1 cells to MIC90 for anti-tubercular activity against Mycobacterium tuberculosis H37Rv; assay type: toxicity, cell-based; details: read-out: Selectivity Index
[5] = Selectivity index, ratio of IC50 for cytotoxicity against human MRC5 cells to MIC90 for anti-tubercular activity against Mycobacterium tuberculosis H37Rv; assay type: toxicity, cell-based; details: read-out: Selectivity Index
[6] = tested on: Mycobacterium tuberculosis; assay: Anti-tubercular activity against Mycobacterium tuberculosis CF16 assessed as inhibition of mycobacterial growth incubated for 7 days by resazurin-dye based analysis; assay type: functional; details: CF16, 168 h, time 7 day
[7] = tested on: Mycobacterium tuberculosis; assay: Anti-tubercular activity against Mycobacterium tuberculosis CF61 assessed as inhibition of mycobacterial growth incubated for 7 days by resazurin-dye based analysis; assay type: functional; details: CF61, 168 h, time 7 day
[8] = tested on: Mycobacterium tuberculosis; assay: Anti-tubercular activity against Mycobacterium tuberculosis CF76 assessed as inhibition of mycobacterial growth incubated for 7 days by resazurin-dye based analysis; assay type: functional; details: CF76, 168 h, time 7 day
[9] = tested on: Mycobacterium tuberculosis; assay: Anti-tubercular activity against Mycobacterium tuberculosis CF152 assessed as inhibition of mycobacterial growth incubated for 7 days by resazurin-dye based analysis; assay type: functional; details: CF152, 168 h, time 7 day
[10] = tested on: Mycobacterium tuberculosis; assay: Anti-tubercular activity against Mycobacterium tuberculosis CF161 assessed as inhibition of mycobacterial growth incubated for 7 days by resazurin-dye based analysis; assay type: functional; details: CF161, 168 h, time 7 day
[11] = tested on: Mycobacterium tuberculosis; assay: Bactericidal activity against Mycobacterium tuberculosis H37Rv assessed as log reduction of bacterial colonies at 1XMIC measured on day 12 by time-kill kinetics analysis (reference value: 7.54 log10CFU/ml); assay type: functional; details: time 12 day
[12] = tested on: Mycobacterium tuberculosis; assay: Anti-tubercular activity against Mycobacterium tuberculosis infected in mouse J774.A1 cells assessed as inhibition of intracellular bacilli growth incubated for 72 hrs; assay type: functional, organism-based
[13] = tested on: Mycobacterium tuberculosis; assay: Bacteriostatic activity against Mycobacterium tuberculosis H37Rv at 1XMIC measured for 12 days by time-kill kinetics analysis; assay type: functional, organism-based; details: time 12.0 day

Compound	MIC90 [1]	IC50 at 24 h [2]	IC50 at 24 h [3]	selectivity ratio [4]	selectivity ratio [5]	also measured
Cc1cc(CNCCCCCCCCNC(=N)N)c(C)n1-c1ccc(OCC(=O)N(C)C)cc1.Cl.Cl	8.91 µg/mL	12.8 µg/mL	36 µg/mL	1.43	4.04	
Cc1cc(CNC2CCC(NC(=N)N)CC2)c(C)n1-c1ccc(Cl)cc1.Cl.Cl (centres undefined)	10.4 µg/mL					
CO[C@H]1/C=C/O[C@@]2(C)Oc3c(C)c(O)c4c(O)c(c(/C=N/N5CCN(C)CC5)c(O)c4c3C2=O)NC(=O)/C(C)=C\C=C\[C@H](C)[C@H](O)[C@@H](C)[C@@H](O)[C@@H](C)[C@H](OC(C)=O)[C@@H]1C [RIFAMPIN]	0.05 µg/mL (≈ 0.0608 µM)					MIC90 [6]: 0.2 µg/mL (≈ 0.243 µM); MIC90 [7]: > 25 µg/mL; MIC90 [8]: > 25 µg/mL; MIC90 [9]: > 25 µg/mL; MIC90 [10]: > 25 µg/mL
Cc1cc(CNCc2ccccc2)c(C)n1C1CCCC1	13.4 µg/mL (≈ 47.6 µM)					
NCC[C@H](O)C(=O)N[C@@H]1C[C@H](N)[C@@H](O[C@H]2O[C@H](CN)[C@@H](O)[C@H](O)[C@H]2O)[C@H](O)[C@H]1O[C@H]1O[C@H](CO)[C@@H](O)[C@H](N)[C@H]1O [AMIKACIN]	0.25 µg/mL (≈ 0.427 µM)					MIC90 [6]: 0.22 µg/mL (≈ 0.376 µM); MIC90 [7]: 0.91 µg/mL (≈ 1.55 µM); MIC90 [8]: 0.25 µg/mL (≈ 0.427 µM); MIC90 [9]: 0.19 µg/mL (≈ 0.324 µM); MIC90 [10]: 0.24 µg/mL (≈ 0.41 µM)
Cc1cc(CNCC2CCCCC2)c(C)n1C(C)c1ccccc1 (centres undefined)	4.48 µg/mL (≈ 13.8 µM)	60.6 µg/mL (≈ 187 µM)	23.4 µg/mL (≈ 72.2 µM)	13.5	5.23	MIC90 [6]: 8.7 µg/mL (≈ 26.8 µM); MIC90 [7]: 10.2 µg/mL (≈ 31.3 µM); MIC90 [8]: 9.13 µg/mL (≈ 28.1 µM); MIC90 [9]: 4.32 µg/mL (≈ 13.3 µM); MIC90 [10]: 9.94 µg/mL (≈ 30.6 µM); Activity [11]: 3.94 log10CFU/ml; Activity [12]: Active
Cc1cc(CNC2CCCCC2)c(C)n1-c1ccc(OCC(=O)O)cc1	16.4 µg/mL (≈ 45.9 µM)					
Cc1cc(CNCC2CCCCC2)c(C)n1-c1ccccn1	16.3 µg/mL (≈ 54.7 µM)					
Cc1cc(CNNC(=O)c2ccncc2)c(C)n1-c1ccc(Cl)cc1		78.5 µg/mL (≈ 221 µM)	96.1 µg/mL (≈ 271 µM)			
Cc1cc(CNC2CCCCC2)c(C)n1-c1ccc(OCC(=O)N(C)C)cc1	> 25 µg/mL					
Cc1cc(CNCC2CCCCC2)c(C)n1Cc1ccc(Cl)cc1	1.39 µg/mL (≈ 4.03 µM)	5.92 µg/mL (≈ 17.2 µM)	10.8 µg/mL (≈ 31.2 µM)	4.25	7.71	
Cc1ccc(-n2c(C)cc(CNCC3CCCCC3)c2C)cc1	4.88 µg/mL (≈ 15.7 µM)	25.1 µg/mL (≈ 80.7 µM)	15.6 µg/mL (≈ 50.2 µM)	5.13	3.19	
Cc1cc(CNCc2ccccc2)c(C)n1Cc1ccc(F)cc1	6.96 µg/mL (≈ 21.6 µM)	15.7 µg/mL (≈ 48.7 µM)	16.2 µg/mL (≈ 50.1 µM)	2.26	2.32	
Cc1cc(CNC2CCCCC2)c(C)n1-c1ccc(C(=O)O)cc1	> 25 µg/mL					
Cc1cc(CNCc2ccccc2)c(C)n1-c1ccccn1	> 25 µg/mL					
Cc1cc(CNCCCCNC(=N)N)c(C)n1-c1ccc(Cl)cc1.Cl.Cl	14.2 µg/mL					

Compound	MIC90 [1]	IC50 at 24 h [2]	IC50 at 24 h [3]	selectivity ratio [4]	selectivity ratio [5]	also measured
NNC(=O)c1ccncc1 [ISONIAZID]	0.11 µg/mL (≈ 0.802 µM)					MIC90 [6]: > 25 µg/mL; MIC90 [7]: > 25 µg/mL; MIC90 [8]: > 25 µg/mL; MIC90 [9]: > 25 µg/mL; MIC90 [10]: > 25 µg/mL; Activity [12]: Active
Cc1cc(CNCC2CCCCC2)c(C)n1C1CCCCC1	1.74 µg/mL (≈ 5.75 µM)	12 µg/mL (≈ 39.6 µM)	26.7 µg/mL (≈ 88.3 µM)	6.89	15.3	
Cc1cc(CNCC2CCCCC2)c(C)n1C1CCCC1	9.21 µg/mL (≈ 31.9 µM)					
Cc1ccc(-n2c(C)cc(CNCc3ccccc3)c2C)cc1	5.58 µg/mL (≈ 18.3 µM)	94 µg/mL (≈ 309 µM)	13.7 µg/mL (≈ 45 µM)	15.8	2.3	MIC90 [6]: 7.51 µg/mL (≈ 24.7 µM); MIC90 [7]: 9.16 µg/mL (≈ 30.1 µM); MIC90 [8]: 8.18 µg/mL (≈ 26.9 µM); MIC90 [9]: 6.35 µg/mL (≈ 20.9 µM); MIC90 [10]: 6.12 µg/mL (≈ 20.1 µM); Activity [11]: 2.65 log10CFU/ml
Cc1cc(CNCCCCCCCCNC(=N)N)c(C)n1-c1ccc(OCC(=O)O)cc1.Cl.Cl	13.2 µg/mL					
COc1c(N2C[C@@H]3CCCN[C@@H]3C2)c(F)cc2c(=O)c(C(=O)O)cn(C3CC3)c12 [MOXIFLOXACIN]	≤ 0.07 µg/mL	14.6 µg/mL (≈ 36.3 µM)	> 100 µg/mL	209	1430	MIC90 [6]: 0.14 µg/mL (≈ 0.349 µM); MIC90 [7]: 0.27 µg/mL (≈ 0.673 µM); MIC90 [8]: 0.2 µg/mL (≈ 0.498 µM); MIC90 [9]: 0.57 µg/mL (≈ 1.42 µM); MIC90 [10]: 0.17 µg/mL (≈ 0.423 µM); Activity [12]: Active
CCOc1ccc(-n2c(C)cc(CNC3CCCCC3)c2C)cc1	5.14 µg/mL (≈ 15.7 µM)	9.17 µg/mL (≈ 28.1 µM)	19.9 µg/mL (≈ 61 µM)	1.78	3.87	
Cc1cc(CNCC2CCCCC2)c(C)n1-c1nc2ccccc2s1	0.4 µg/mL (≈ 1.13 µM)	8.47 µg/mL (≈ 24 µM)	10.3 µg/mL (≈ 29.2 µM)	21.2	25.8	MIC90 [6]: 20.1 µg/mL (≈ 56.9 µM); MIC90 [7]: 23.5 µg/mL (≈ 66.5 µM); MIC90 [8]: 19.6 µg/mL (≈ 55.5 µM); MIC90 [9]: 10.9 µg/mL (≈ 30.9 µM); MIC90 [10]: 13.6 µg/mL (≈ 38.5 µM); Activity [13]: Active; Activity [12]: Active
Cc1cc(CNCC2CCCCC2)c(C)n1Cc1ccc(F)cc1	0.73 µg/mL (≈ 2.22 µM)	9.88 µg/mL (≈ 30.1 µM)	21 µg/mL (≈ 63.9 µM)	13.6	28.8	MIC90 [6]: 7.69 µg/mL (≈ 23.4 µM); MIC90 [7]: 9.38 µg/mL (≈ 28.6 µM); MIC90 [8]: 18.8 µg/mL (≈ 57.2 µM); MIC90 [9]: 7.53 µg/mL (≈ 22.9 µM); MIC90 [10]: 7.31 µg/mL (≈ 22.3 µM); Activity [13]: Active; Activity [12]: Active
Cc1cc(CNCC2CCCCC2)c(C)n1-c1ccccc1	0.3 µg/mL (≈ 1.01 µM)					
Cc1cc(CNCc2ccccc2)c(C)n1Cc1ccc(Cl)cc1	10.6 µg/mL (≈ 31.1 µM)					
Cc1cc(CNC2CCC(N)CC2)c(C)n1-c1ccc(Cl)cc1.Cl.Cl (centres undefined)	> 25 µg/mL					
Cc1cc(CNCc2ccccc2)c(C)n1CC1CCCCC1	6.58 µg/mL (≈ 21.2 µM)	13.4 µg/mL (≈ 43.3 µM)	18.3 µg/mL (≈ 58.8 µM)	2.04	2.78	
Cc1cc(CNCc2ccccc2)c(C)n1-c1nc2ccccc2s1	11.2 µg/mL (≈ 32.1 µM)					
Cc1cc(CNCC2CCCCC2)c(C)n1Cc1ccccn1	23 µg/mL (≈ 73.9 µM)					
Cc1cc(CNCc2ccccc2)c(C)n1C(C)c1ccccc1 (centres undefined)	7.94 µg/mL (≈ 24.9 µM)	17.6 µg/mL (≈ 55.1 µM)	33.3 µg/mL (≈ 105 µM)	2.21	4.2	
